pIC50: −log10 of the molar value.
Legend:
CCR2 = biological target: T1, CCR2 (Homo sapiens, UniProt P41597); assay: CCR2 in vitro test: intracellular calcium signal detected by FLIPR; type: cell-based; details: HEK293 cells expressing CCR2, agonist MCP-1 at EC80, calcium signal
T1 construct: expressed in transfected cells; host or cells: HEK293, clone C7, passage P6
Experimental: (§1) Experimental Example 1: CCR2/CCR5 In Vitro Test
(§2) The intracellular calcium signal was detected by FLIPR, and the IC50 value of the compound was used as an index to evaluate the inhibitory effect of the compound on CCR2 and CCR5 receptors.
(§3) 1. Cell line: The cells were inoculated and incubated in a 5% CO2 incubator at 37° C. overnight.
(§4) CCR2/CCR5 density: 1 M (20 k/well)
(§5) 2. Reagents: Fluo-4 Direct, (Invitrogen, Cat #F10471)
(§6) The compound was dissolved in DMSO to prepare a 10 mM solution, and the compound solution was placed in a nitrogen box.
(§7) Agonist reference compounds:
(§8) Preparation of probenecid in FLIPR assay buffer: 1 mL of FLIPR assay buffer was added to […] of probenecid to prepare a 250 mM solution, which is prepared fresh daily.
(§9) 2× (8 μM) Fluo-4 Direct™ Loading Buffer (per 10 mL) • Thaw a bottle of Fluo-4 Direct™ crystal (F10471). • Add 10 mL of FLIPR assay buffer to the vial. • Add 0.2 mL of probenecid to each 10 mL of Fluo-Direct. The final concentration of the assay was 2.5 mM. • Rotate it and place for >5 minutes (in absence of light). • Prepare fresh daily.
(§10) MCP-1 was diluted in FLIPR assay buffer 1:2 into 10 points, starting at 0.5 uM (final 100 nM). RANTES was diluted in FLIPR assay buffer 1:3 into 10 points, starting at 0.5 uM (final 100 nM). 20 uL of serially diluted compound buffer was added to each well of the DRC plate according to the compound plate map.
(§11) Standard compound was diluted in DMSO 1:3 into 11 points, starting at 1 mM. Test compound was diluted in DMSO 1:3 into 11 points, starting at 2 mM. 250 nL of compound solution was transferred into a cell plate using Echo (Greiner #781946).
(§12) (c) Take the cell plate out of the incubator, and gently dispense 20 uL of 2× Fluo-4 Direct wash-free loading buffer into a 384-well cell culture plate using a pipette. The final cell plate is 40 μL in volume.
(§13) (d) Incubate for 50 minutes at 37° C. under 5% CO2, and for 10 minutes at room temperature.
(§14) (e) Take the cell plate out of the incubator, and place it in FLIPR. Place the composite plate and the tip box in FLIPR.
(§15) (f) For DRC plate: • 1) Run the program on FLIPRTETRA. • 2) Read the fluorescent signal. • 3) Transfer 10 μL of compound from the DRC plate to the cell plate. • 4) Read the fluorescent signal. • 5) Calculate the “maximum−minimum” from Read 90 to the maximum allowed. Use FLIPR to calculate the EC80 value of each cell line. • 6) Prepare 5×EC80 concentration of the agonist reference compound.
(§16) (g) For the composite plate (1-add): • 1) Run the program on FLIPRTETRA. • 2) Transfer 10 μl, of 5×EC80 concentration of the agonist reference compound from the composite plate to the cell plate. • 3) Read the fluorescent signal. • 4) Calculate the “maximum−minimum” from Read 90 to the maximum allowed.
(§17) (h) Analyze the data using Prism, and calculate the IC50 value of the compound.

CCR5 = biological target: T2, CCR5 (Homo sapiens, UniProt P51681); assay: CCR5 in vitro test: intracellular calcium signal detected by FLIPR; type: cell-based; details: HEK293 cells expressing CCR5, agonist RANTES at EC80, calcium signal
T2 construct: expressed in transfected cells; host or cells: HEK293, clone C13, passage P4
Experimental: as §1, §2, §3, §4, §5, §6, §7, §8, §9, §10, §11, §12, §13, §14, §15, §16, §17

T1 sequence (P41597 whole entry, species assumed): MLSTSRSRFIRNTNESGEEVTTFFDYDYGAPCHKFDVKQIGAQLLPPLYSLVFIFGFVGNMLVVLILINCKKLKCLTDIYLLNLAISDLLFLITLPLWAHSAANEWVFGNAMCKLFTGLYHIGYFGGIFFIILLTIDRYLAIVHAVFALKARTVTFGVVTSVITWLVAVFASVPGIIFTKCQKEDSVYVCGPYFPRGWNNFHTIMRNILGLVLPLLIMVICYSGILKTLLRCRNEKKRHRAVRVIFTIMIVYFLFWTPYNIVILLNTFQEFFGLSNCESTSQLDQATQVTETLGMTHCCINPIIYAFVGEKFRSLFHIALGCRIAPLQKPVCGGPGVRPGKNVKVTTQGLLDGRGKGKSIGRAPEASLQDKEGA
T2 sequence (P51681 whole entry, species assumed): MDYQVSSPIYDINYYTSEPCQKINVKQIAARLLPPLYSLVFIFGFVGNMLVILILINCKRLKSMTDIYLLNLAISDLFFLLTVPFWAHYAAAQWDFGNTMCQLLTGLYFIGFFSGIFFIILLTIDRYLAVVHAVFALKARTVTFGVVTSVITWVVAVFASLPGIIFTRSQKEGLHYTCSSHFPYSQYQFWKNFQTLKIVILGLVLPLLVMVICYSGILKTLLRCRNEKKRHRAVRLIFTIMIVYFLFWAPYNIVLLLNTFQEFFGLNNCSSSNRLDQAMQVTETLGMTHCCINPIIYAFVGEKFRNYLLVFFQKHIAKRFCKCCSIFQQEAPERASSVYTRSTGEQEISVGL

Structure (SMILES) | pIC50 (CCR2) | pIC50 (CCR5)
CCCCOCCOc1ccc(-c2ccc(O)c(/C=C/C(=O)Nc3ccc([S@@+]([O-])Cc4cncn4CCC)cc3)c2)cc1 [WX049] | 7.88 | 8.04
CCCn1cncc1C[S@+]([O-])c1ccc(NC(=O)/C=C/c2cccc(-c3ccc(OCCOC)cc3)c2)cc1 [WX013] | 6.01 | 7.85
CCCCOCCOc1ccc(-c2cccc(/C=C/C(=O)Nc3ccc([S+]([O-])Cc4cncn4CC4CC4)cc3)c2)cc1 (stereo not shown) [WX023] | 7.43 | 7.27
CCCCOCCOc1ccc(-c2ccc(C(C)C)c(/C=C/C(=O)Nc3ccc([S@@+]([O-])Cc4cncn4CCC)cc3)c2)cc1 [WX006] | 7.49 | 8.48
CCCCOCCOc1ccc(-c2ccc(OC(F)F)c(/C=C/C(=O)Nc3ccc([S@+]([O-])Cc4c(C)ncn4CCC)cc3)c2)cc1 [WX081] | 7.90 | 8.26
CCCCOCCOc1ccc(-c2ccc(OC(F)F)c(/C=C/C(=O)Nc3ccc([S@@+]([O-])Cc4c(C)ncn4CCC)cc3)c2)cc1 [WX082] | 7.27 | 7.94
CCCCOc1ccc(-c2ccc(Cl)c(/C=C/C(=O)Nc3ccc([S+]([O-])Cc4cncn4CC4CC4)cc3)c2)cc1 (stereo not shown) [WX021] | 7.19 | 8.06
CCCCOCCOc1ccc(-c2cc(/C=C/C(=O)Nc3ccc([S@@+]([O-])Cc4cncn4CCC)cc3)c(OC)cc2Cl)cc1 [WX043] | 6.60 | 8.04
CCCCOCCOc1ccc(-c2ccc(OC(F)(F)F)c(/C=C/C(=O)Nc3ccc([S@@+]([O-])Cc4c(C)ncn4CC)cc3)c2)cc1 [WX054] | 7.36 | 8.04
CCCCOCCOc1ccc(-c2ccc(OC(F)F)c(/C=C/C(=O)Nc3ccc([S@@+]([O-])Cc4cncn4CCC)cc3)c2)cc1 [WX051] | 8.26 | 8.85
CCCCOc1ccc(-c2ccc(OC)c(/C=C/C(=O)Nc3ccc([S@@+]([O-])Cc4cncn4CCC)cc3)c2)cc1 [WX048] | 7.93 | 8.59
CCCOCCOc1ccc(-c2ccc(OC(F)F)c(/C=C/C(=O)Nc3ccc([S@+]([O-])Cc4c(C)ncn4CCC)cc3)c2)cc1 [WX080] | 7.60 | 7.82
CCCOc1ccc(-c2cccc(/C=C(\C)C(=O)Nc3ccc([S+]([O-])Cc4nncn4CCC)cc3)c2)cc1 (stereo not shown) [WX015] | 7.21 | 7.19
CCCn1cncc1C[S@+]([O-])c1ccc(NC(=O)/C=C/c2cc(-c3ccc(OCCCF)cc3)ccc2Cl)cc1 [WX022] | 6.69 | 8.00
CCCCOc1ccc(-c2ccc(Cl)c(/C=C/C(=O)Nc3ccc([S+]([O-])Cc4cncn4CC)cc3)c2)cc1 (stereo not shown) [WX020] | 7.17 | 8.09
CCCOCCOc1ccc(-c2ccc(OC)c(/C=C/C(=O)Nc3ccc([S@+]([O-])Cc4c(C)ncn4CC)cc3)c2)cc1 [WX066] | 8.19 | 8.00
CCCCOc1ccc(-c2ccc(Cl)c(/C=C/C(=O)Nc3ccc([S+]([O-])Cc4cncn4CC(C)C)cc3)c2)cc1 (stereo not shown) [WX030] | 6.52 | 7.80
CCCCOCCOc1ccc(-c2ccc(OC)c(/C=C/C(=O)Nc3ccc([S@+]([O-])Cc4cncn4CC)cc3)c2)cc1 [WX039] | 7.15 | 6.12
CCCOc1ccc(-c2ccc(OC(F)F)c(/C=C/C(=O)Nc3ccc([S@@+]([O-])Cc4c(C)ncn4CC)cc3)c2)cc1 [WX062] | 7.07 | 7.69
CCCCOCCOc1ccc(-c2ccc(OC)c(/C=C/C(=O)Nc3ccc([S+]([O-])Cc4c(C)ncn4CCC)cc3)c2)cc1 (stereo not shown) [WX038] | 7.37 | 7.90
CCCCOCCOc1ccc(-c2cc(C)c(OC)c(/C=C/C(=O)Nc3ccc([S@+]([O-])Cc4c(C)ncn4CC)cc3)c2)cc1 [WX090] | 8.26 | 8.16
CCCCOCCOc1ccc(-c2cccc(/C=C/C(=O)Nc3ccc([S@@+]([O-])Cc4cncn4CCC)cc3)c2)cc1 [WX001] | 7.52 | 8.03
CCCn1cncc1C[S@+]([O-])c1ccc(NC(=O)/C=C/c2cccc(-c3ccc(N4CCCC4)cc3)c2)cc1 [WX037] | 7.21 | 7.35
CCCCOc1ccc(-c2ccc(Cl)c(/C=C/C(=O)Nc3ccc([S+]([O-])Cc4cncn4CCCC)cc3)c2)cc1 (stereo not shown) [WX027] | 6.68 | 7.87
CCCCOCCOc1ccc(-c2ccc(F)c(/C=C/C(=O)Nc3ccc([S@+]([O-])Cc4c(C)ncn4CC)cc3)c2)cc1 [WX091] | 8.33 | 8.36

Continued by rising pIC50 (CCR2), values first:

pIC50 (CCR2) | pIC50 (CCR5) | Structure (SMILES)
6.53 | 7.79 | CCCCOCCOc1ccc(-c2ccc(C#N)c(/C=C/C(=O)Nc3ccc([S@@+]([O-])Cc4cncn4CCC)cc3)c2)cc1 [WX044]
6.78 | 7.47 | CCCCOCCOc1ccc(-c2cccc(/C=C/C(=O)Nc3ccc([S+]([O-])Cc4cncn4CC(C)C)cc3)c2)cc1 (stereo not shown) [WX029]
6.82 | 8.15 | CCCn1cncc1C[S@+]([O-])c1ccc(NC(=O)/C=C/c2cccc(-c3ccc(OCC)cc3)c2)cc1 [WX004]
7.19 | 8.19 | CCCn1cncc1C[S@+]([O-])c1ccc(NC(=O)/C=C/c2cccc(-c3ccc(OC(C)C)cc3)c2)cc1 [WX007]
7.19 | 7.88 | CCCCOCCOc1ccc(-c2ccc(OC)c(/C=C/C(=O)Nc3ccc([S@@+]([O-])Cc4cncn4CCC)cc3)c2)c(C)c1 [WX036]
7.28 | 8.40 | CCCCOCCOc1ccc(-c2cc(C)c(OC)c(/C=C/C(=O)Nc3ccc([S@@+]([O-])Cc4cncn4CCC)cc3)c2)cc1 [WX042]
7.36 | 8.14 | CCCCOc1ccc(-c2ccc(OC(F)F)c(/C=C/C(=O)Nc3ccc([S@@+]([O-])Cc4cncn4CCC)cc3)c2)cc1 [WX018]
7.52 | 8.00 | CCCCOCCOc1ccc(-c2ccc(OCC(C)C)c(/C=C/C(=O)Nc3ccc([S@@+]([O-])Cc4cncn4CCC)cc3)c2)cc1 [WX034]
7.65 | 7.67 | CCCCOCCOc1ccc(-c2ccc(C)c(/C=C/C(=O)Nc3ccc([S+]([O-])Cc4cncn4CC)cc3)c2)cc1 (stereo not shown) [WX041]
7.67 | 8.52 | CCCCOCCOc1ccc(-c2ccc(F)c(/C=C/C(=O)Nc3ccc([S@@+]([O-])Cc4cncn4CCC)cc3)c2)cc1 [WX003]
7.76 | 8.82 | CCCCOCCOc1ccc(-c2cccc(/C=C(\C)C(=O)Nc3ccc([S@@+]([O-])Cc4cncn4CCC)cc3)c2)cc1 [WX008]
7.92 | 8.23 | CCCCOCCOc1ccc(-c2ccc(C3CCCC3)c(/C=C/C(=O)Nc3ccc([S@@+]([O-])Cc4c(C)ncn4CC)cc3)c2)cc1 [WX072]
8.05 | 7.82 | CCCCOCCOc1ccc(-c2ccc(OC(F)F)c(/C=C/C(=O)Nc3ccc([S@@+]([O-])Cc4c(C)ncn4CC)cc3)c2)cc1 [WX061]
